# Patent US20240122180A1, “FUNGICIDAL HALOMETHYL KETONES AND HYDRATES AND THEIR MIXTURES” (FMC Corporation, priority 2020, published 2024)
# Marks after values point to notes of the source that are not given here.
# What was measured:
# Type in all cases: in vivo
# [1] = system: Puccinia recondita f. sp. tritici (the causal agent of wheat leaf rust); assay: Test B: preventive spray on wheat seedlings, disease rating (100 = 100% control; * 50 ppm, ** 10 ppm, *** 250 ppm); settings: 100 = 100% disease control
# How it was run: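 Preventive test: Puccinia recondita f. sp. tritici spores were inoculated one day after run-off spraying of wheat seedlings with test suspension (acetone/water 50/50, 250 ppm PEG400). After 24 h in saturated air and 6 days in a growth chamber, both at 20° C, control was scored 0–100 versus untreated plants.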
# [2] = system: Zymoseptoria tritici (the causal agent of wheat leaf blotch); assay: Test D: preventive spray on wheat seedlings, disease rating (100 = 100% control; * 50 ppm, ** 10 ppm, *** 250 ppm); settings: 250 ppm test suspension, 100 = 100% disease control; for pest or weed control at 250 ppm: Zymoseptoria tritici
# Description: (§1) General protocol for preparing test suspensions for Tests A-E: the test compounds were first dissolved in acetone in an amount equal to 3% of the final volume and then suspended at the desired concentration (in ppm) in acetone and purified water (50/50 mix by volume) containing 250 ppm of the surfactant […] (polyhydric alcohol esters). The resulting test suspensions were then used in Tests A-E.
# The test solution was sprayed to the point of run-off on wheat seedlings. The following day the seedlings were inoculated with a spore suspension of Zymoseptoria tritici (the causal agent of wheat leaf blotch) and incubated in a saturated atmosphere at 24° C. for 48 h, and then moved to a growth chamber at 20° C. for 17 days, after which time disease ratings were made.
# (§2) Results for Tests A-E are given in Table A. In the Table, a rating of 100 indicates 100% disease control and a rating of 0 indicates no disease control (relative to the controls). An asterisk “*” or a double asterisk “**” or a triple asterisk “***” next to the rating value indicates a 50 ppm, 10 ppm and 250 ppm test suspension was used, respectively. A dash (-) indicates the compound was not tested.
# [3] = system: Blumeria graminis f. sp. tritici (the causal agent of wheat powdery mildew); assay: Test E: preventive spray on wheat seedlings, visual disease rating (100 = 100% control; * 50 ppm, ** 10 ppm, *** 250 ppm); settings: 100 = 100% disease control; for pest or weed control at 250 ppm / Test E disease control rating: 250 ppm test suspension
# Description: as §1
# The test suspension was sprayed to the point of run-off on wheat seedlings. The following day the seedlings were inoculated with a spore dust of Blumeria graminis f. sp. tritici, (also known as Erysiphe graminis f. sp. tritici, the causal agent of wheat powdery mildew) and incubated in a growth chamber at 20° C. for 8 days, after which time visual disease ratings were made.
# as §2
# [4] = system: Phakopsora pachyrhizi (the causal agent of Asian soybean rust); assay: Test A: preventive spray on soybean seedlings, visual disease rating (100 = 100% control; * 50 ppm, ** 10 ppm, *** 250 ppm); settings: 100 = 100% disease control
# How it was run: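 Preventive test: one day after spraying compound (acetone/water suspension, 250 ppm PEG400), seedlings received rust spore inoculum, 24 h in saturated air then 8 days in growth chamber, both at 22 °C. Disease control scored visually, 100 = complete, 0 = none, relative to untreated controls.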
# [5] = system: Phakopsora pachyrhizi (the causal agent of Asian soybean rust); assay: Test F: Compound 32 or 64 alone and in mixtures on soybean seedlings, observed (Obsd) and Colby expected (Exp) disease control; settings: for pest or weed control at 544.265 ppm: flutriafol 544.265 ppm alone; for pest or weed control at 1124.02 ppm: flutriafol 1124.021 ppm alone; for pest or weed control at 29.673 ppm: metominostrobin 29.673 ppm alone; for pest or weed control at 86.003 ppm: metominostrobin 86.003 ppm alone; for pest or weed control at 10.165 ppm: prothioconazole 10.165 ppm alone; for pest or weed control at 16.339 ppm: prothioconazole 16.339 ppm alone; for pest or weed control at 45.86 ppm: pyraclostrobin 45.860 ppm alone; for pest or weed control at 137.503 ppm: pyraclostrobin 137.503 ppm alone; for pest or weed control at 486.921 ppm: tebuconazole 486.921 ppm alone; for pest or weed control at 841.166 ppm: tebuconazole 841.166 ppm alone; for pest or weed control at 20.511 ppm: trifloxystrobin 20.511 ppm alone; for pest or weed control at 35.31 ppm: trifloxystrobin 35.310 ppm alone
# Description: The general protocol for preparing test compositions for Test F was as follows: Compound 32, Compound 64, azoxystrobin, benzovindiflupyr, bixafen, chlorothalonil, cyproconazole, epoxiconazole, fenpropidin, fenpropimorph, fluindapyr, flutriafol, fluxapyroxad, metominostrobin, picoxystrobin, prothioconazole, pydiflumetofen, pyraclostrobin, tebuconazole and trifloxystrobin were obtained as unformulated, technical-grade materials. Copper hydroxide and mancozeb was obtained as a formulated product marketed under the trademarks KOCIDE 3000 and MANZATE, respectively. Unformulated materials were first dissolved in acetone and then suspended at the desired concentration (in ppm) in acetone and purified water (50/50 mix by volume) containing 250 ppm of the surfactant Trem® 014 (polyhydric alcohol esters). Formulated materials were dispersed in sufficient water to give the desired concentration, and neither organic solvent nor surfactant was added to the suspension. The resulting test mixtures were then used in Test F. The tests were run on four individual plants and the results reported as the mean average of the four plants.
# The presence of a synergistic effect between two active ingredients was established with the aid of the Colby equation (see Colby, S. R. “Calculating Synergistic and Antagonistic Responses of Herbicide Combinations”, Weeds, (1967), 15, 20-22):
# Using the method of Colby, the presence of a synergistic interaction between two active ingredients is established by first calculating the predicted activity, p, of the mixture based on activities of the two components applied alone. If p is lower than the experimentally established effect, synergism has occurred. In the equation above, A is the fungicidal activity in percentage control of one component applied alone at rate x. The B term is the fungicidal activity in percentage control of the second component applied at rate y. The equation estimates p, the expected fungicidal activity of the mixture of A at rate x with B at rate y if their effects are strictly additive and no interaction has occurred.
# The test mixture was sprayed to the point of run-off on soybean seedlings. The following day the seedlings were inoculated with a spore suspension of Phakopsora pachyrhizi (the causal agent of Asian soybean rust) and incubated in a saturated atmosphere at 22° C. for 24 h and then moved to a growth chamber at 22° C. for 8 days, after which time visual disease ratings were made.
# Results for Test F are given in Tables B-1 through I-1 for Compound 32 and Tables B-2 through I-2 for Compound 64. Each table corresponds to a set of evaluations performed together at the same time. In each table, a rating of 100 indicates 100% disease control and a rating of 0 indicates no disease control (relative to the controls). Columns labeled “Obsd” indicate the average of results observed from test run on four individual plants. Columns labeled “Exp” indicate the expected value for each treatment mixture using the Colby equation.
# [6] = Blumeria graminis, wheat seedlings
# [7] = Puccinia recondita, 50 ppm test suspension, wheat seedlings
# [8] = 10 ppm test suspension, 0 = no control
# [9] = 50 ppm test suspension, 0 = no control
# [10] = 10 ppm test suspension, wheat seedlings
# [11] = 10 ppm test suspension, soybean seedlings
# [12] = Phakopsora pachyrhizi, Table I-1
# [13] = Phakopsora pachyrhizi, Table I-2
# [14] = Phakopsora pachyrhizi, Table H-1
# [15] = Phakopsora pachyrhizi, Table H-2
# [16] = Phakopsora pachyrhizi, Table G-1
# [17] = Phakopsora pachyrhizi, Table G-2
# [18] = Phakopsora pachyrhizi, Table D-1
# [19] = Phakopsora pachyrhizi, Table D-2
# [20] = Phakopsora pachyrhizi, Table E-2
structure (smiles),measurement,setting,value
"CCOC(=O)c1cnn(Cc2ccc(OCC(O)(O)C(F)(F)F)cc2)c1 [Compound 1, ethyl 1-[[4-(3,3,3-trifluoro-2,2-dihydroxypropoxy)phenyl]methyl]-1H-pyrazole-4-carboxylate]",pest or weed control at 250 ppm,"[1]; Puccinia recondita, 250 ppm test suspension, wheat seedlings",91%
same,pest or weed control at 250 ppm,[2]; wheat seedlings,97%
same,pest or weed control at 250 ppm,[3]; [6],81%
"COC(=O)c1ccc(OCC(O)(O)C(F)(F)F)cc1 [Compound 229, methyl 4-(3,3,3-trifluoro-2,2-dihydroxypropoxy)phenylcarboxylate]",pest or weed control at 50 ppm,[1]; [7],100%
same,pest or weed control at 250 ppm,[2]; wheat seedlings,96%
same,pest or weed control at 250 ppm,[3]; [6],99%
CCOC(=O)c1cnn(Cc2ccc(OCC(O)(O)C(F)(F)F)c(F)c2)c1 [Compound 264],Test B disease control rating,[1]; [8],80%
same,Test A disease control rating,[4]; [8],99%
same,Test D disease control rating,[2]; 0 = no control,95*** %
same,Test E disease control rating,[3]; 0 = no control,96*** %
CCOC(=O)c1cnn(Cc2ccc(OCC(O)(O)C(F)(F)F)c(Cl)c2)c1 [Compound 459],Test B disease control rating,[1]; [9],97%
same,Test A disease control rating,[4]; [9],100%
same,Test D disease control rating,[2]; 0 = no control,37*** %
same,Test E disease control rating,[3]; 0 = no control,0*** %
CCS(=O)(=O)Cc1ccc(OCC(O)(O)C(F)(F)F)cc1 [compound 29],Test B disease control rating,[1]; [10],28%
same,Test A disease control rating,[4]; [11],84%
same,Test D disease control rating,[2]; wheat seedlings,0*** %
same,Test E disease control rating,[3]; wheat seedlings,79*** %
CCOC(=O)c1cnn(Cc2ccc(OCC3(C(F)(F)F)OCCO3)cn2)c1 [compound 124],pest or weed control at 50 ppm,[1]; [7],0%
same,pest or weed control at 250 ppm,[2]; wheat seedlings,92%
same,pest or weed control at 50 ppm,"[3]; Blumeria graminis, 50 ppm test suspension, wheat seedlings",98%
CCO/C(=C\Oc1ccc(Cn2cc(C(=O)OCC(=O)c3ccccc3)cn2)cc1)C(F)(F)F [compound 244],Test B disease control rating,[1]; [10],0%
same,Test A disease control rating,[4]; [11],100%
same,Test D disease control rating,[2]; wheat seedlings,0*** %
same,Test E disease control rating,[3]; wheat seedlings,0*** %
O=[N+]([O-])c1ccc(OCC(O)(O)C(F)(F)F)cc1 [compound 280],Test B disease control rating,[1]; [9],100%
same,Test A disease control rating,[4]; [9],100%
same,Test D disease control rating,[2]; 0 = no control,99*** %
same,Test E disease control rating,[3]; 0 = no control,99*** %
CCOC(=O)c1cnn(COc2cccc(OCC(O)(O)C(F)(F)F)c2)c1 [compound 320],pest or weed control at 10 ppm,"[1]; Puccinia recondita, 10 ppm test suspension, 0 = no control",68%
same,pest or weed control at 10 ppm,"[4]; Phakopsora pachyrhizi, 10 ppm test suspension, 0 = no control",89%
same,pest or weed control at 250 ppm,[2]; 0 = no control,81%
same,pest or weed control at 250 ppm,"[3]; Blumeria graminis, 0 = no control",91%
OC(Cn1cncn1)(c1ccc(F)cc1)c1ccccc1F (stereo not shown) [flutriafol],pest or weed control at 544.265 ppm,[5]; [12],13%
same,pest or weed control at 544.265 ppm,[5]; [13],13%
same,pest or weed control at 1124.02 ppm,[5]; [12],52%
same,pest or weed control at 1124.02 ppm,[5]; [13],52%
Cn1cc(C(=O)Nc2ccccc2-c2cc(F)c(F)c(F)c2)c(C(F)F)n1 [fluxapyroxad],Obsd disease control,"[5]; fluxapyroxad 2.757 ppm alone, Table C-1",19%
same,Obsd disease control,"[5]; fluxapyroxad 2.757 ppm alone, Table C-2",19%
same,Obsd disease control,"[5]; fluxapyroxad 4.748 ppm alone, Table C-1",52%
same,Obsd disease control,"[5]; fluxapyroxad 4.748 ppm alone, Table C-2",52%
CNC(=O)/C(=N/OC)c1ccccc1Oc1ccccc1 [metominostrobin],pest or weed control at 29.673 ppm,[5]; [14],13%
same,pest or weed control at 29.673 ppm,[5]; [15],13%
same,pest or weed control at 86.003 ppm,[5]; [14],37%
same,pest or weed control at 86.003 ppm,[5]; [15],37%
CO/C=C(/C(=O)OC)c1ccccc1COc1cccc(C(F)(F)F)n1 [picoxystrobin],Obsd disease control,"[5]; picoxystrobin 20.596 ppm alone, Table B-1",73%
same,Obsd disease control,"[5]; picoxystrobin 20.596 ppm alone, Table B-2",73%
same,Obsd disease control,"[5]; picoxystrobin 33.865 ppm alone, Table B-1",75%
same,Obsd disease control,"[5]; picoxystrobin 33.865 ppm alone, Table B-2",75%
OC(Cc1ccccc1Cl)(Cn1nc[nH]c1=S)C1(Cl)CC1 (stereo not shown) [prothioconazole],pest or weed control at 10.165 ppm,[5]; [16],7%
same,pest or weed control at 10.165 ppm,[5]; [17],7%
same,pest or weed control at 16.339 ppm,[5]; [16],65%
same,pest or weed control at 16.339 ppm,[5]; [17],65%
CON(C(=O)c1cn(C)nc1C(F)F)C(C)Cc1c(Cl)cc(Cl)cc1Cl (stereo not shown) [pydiflumetofen],Obsd disease control,"[5]; pydiflumetofen 41.364 ppm alone, Table H-1",49%
same,Obsd disease control,"[5]; pydiflumetofen 41.364 ppm alone, Table H-2",49%
same,Obsd disease control,"[5]; pydiflumetofen 70.950 ppm alone, Table F-1",0%
same,Obsd disease control,"[5]; pydiflumetofen 70.950 ppm alone, Table F-2",0%
same,Obsd disease control,"[5]; pydiflumetofen 128.793 ppm alone, Table H-1",36%
same,Obsd disease control,"[5]; pydiflumetofen 128.793 ppm alone, Table H-2",36%
same,Obsd disease control,"[5]; pydiflumetofen 135.850 ppm alone, Table F-1",73%
same,Obsd disease control,"[5]; pydiflumetofen 135.850 ppm alone, Table F-2",73%
COC(=O)N(OC)c1ccccc1COc1ccn(-c2ccc(Cl)cc2)n1 [pyraclostrobin],pest or weed control at 45.86 ppm,[5]; [14],35%
same,pest or weed control at 45.86 ppm,[5]; [15],35%
same,pest or weed control at 137.503 ppm,[5]; [14],45%
same,pest or weed control at 137.503 ppm,[5]; [15],45%
CC(C)(C)C(O)(CCc1ccc(Cl)cc1)Cn1cncn1 (stereo not shown) [tebuconazole],pest or weed control at 486.921 ppm,[5]; [18],30%
same,pest or weed control at 486.921 ppm,[5]; [19],30%
same,pest or weed control at 841.166 ppm,[5]; [18],55%
same,pest or weed control at 841.166 ppm,[5]; [19],55%
CON=C(C(=O)OC)c1ccccc1CON=C(C)c1cccc(C(F)(F)F)c1 [trifloxystrobin],pest or weed control at 20.511 ppm,[5]; [20],69%
same,pest or weed control at 35.31 ppm,[5]; [20],86%
same,pest or weed control at 20.511 ppm,[5]; Table E-1,69%
same,pest or weed control at 35.31 ppm,[5]; Table E-1,86%
